Experimental data as given in patent publication US6770133B2, “Stable crystal of thiazolidinedione derivative and process for producing the same” (Kyorin Pharmaceutical Co., Ltd., priority 2000, dated 2004).

Assays:
[1] = M. Nomura et al, Bioorg. Med. Chem. Lett., 9 (1999) 533-538; cited from earlier work
[2] = Thermal analysis (thermal stability of the crystals); assay type: physicochemical
From the text: Using the thermal analysis apparatus (Rigaku Denki; TAS-200), the thermal stability of the crystals were examined.

[3] = Hygroscopicity of the crystals; assay type: physicochemical
[4] = thermal analysis apparatus Rigaku Denki TAS-200

Row | SMILES | glucose-lowering activity [1] | endothermic peak [2, 4] [°C] | thermal stability compared with the conventional crystal ([2]; conclusion from thermal analysis) | endothermic phenomena observed from (onset) [2, 4] [°C] | hygroscopicity [3]
1 | COc1ccc(CC2SC(=O)NC2=O)cc1C(=O)NCc1ccc(C(F)(F)F)cc1 (stereo not drawn) [KRP-297, 5-[(2,4-dioxothiazolidin-5-yl)methyl]-2-methoxy-N-[[4-(trifluoromethyl)phenyl]methyl]benzamide] | very excellent glucose-lowering activity |  |  |  | 
2 | COc1ccc(CC2SC(=O)NC2=O)cc1C(=O)NCc1ccc(C(F)(F)F)cc1 (stereo not drawn) [conventional crystals, 5-[(2,4-dioxothiazolidin-5-yl)methyl]-2-methoxy-N-[[4-(trifluoromethyl)phenyl]methyl]benzamide, reference compound] |  | 186.3 |  |  | 
3 | COc1ccc(CC2SC(=O)NC2=O)cc1C(=O)NCc1ccc(C(F)(F)F)cc1 (stereo not drawn) [novel crystal, 5-[(2,4-dioxothiazolidin-5-yl)methyl]-2-methoxy-N-[[4-(trifluoromethyl)phenyl]methyl]benzamide] |  | 196.2 | more thermally stable | 194.8 | no hygroscopicity
